Drawing on US20260132140A1, “IMIDAZOLYL-AMINO-PYRAZINE-CARBONITRILS AS CHK-1 INHIBITORS” (BenevolentAI Bio Limited, priority 2022, published 2026), this text covers IC50 for 28 molecules.

The target in one test is human Chk2 kinase (Homo sapiens, UniProt O96017). Briefly: biochemical.
The target of a further test is T1, human Chk1 kinase (Homo sapiens, UniProt O14757).
T1 sequence (O14757 1-476): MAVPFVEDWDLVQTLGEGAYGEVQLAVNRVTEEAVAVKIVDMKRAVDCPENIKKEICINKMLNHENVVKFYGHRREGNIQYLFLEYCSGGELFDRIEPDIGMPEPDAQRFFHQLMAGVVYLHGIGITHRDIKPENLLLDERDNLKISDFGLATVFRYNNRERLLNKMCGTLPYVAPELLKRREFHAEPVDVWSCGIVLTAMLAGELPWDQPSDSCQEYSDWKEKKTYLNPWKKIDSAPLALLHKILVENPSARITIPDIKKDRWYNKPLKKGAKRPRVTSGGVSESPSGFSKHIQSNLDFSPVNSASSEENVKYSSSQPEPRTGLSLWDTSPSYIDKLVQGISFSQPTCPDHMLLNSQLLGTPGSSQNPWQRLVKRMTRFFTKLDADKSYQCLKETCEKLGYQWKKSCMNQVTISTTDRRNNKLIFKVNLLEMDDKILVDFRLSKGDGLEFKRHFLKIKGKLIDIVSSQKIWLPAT
Briefly: biochemical.

Sequence of human Chk2 kinase (O96017 whole entry): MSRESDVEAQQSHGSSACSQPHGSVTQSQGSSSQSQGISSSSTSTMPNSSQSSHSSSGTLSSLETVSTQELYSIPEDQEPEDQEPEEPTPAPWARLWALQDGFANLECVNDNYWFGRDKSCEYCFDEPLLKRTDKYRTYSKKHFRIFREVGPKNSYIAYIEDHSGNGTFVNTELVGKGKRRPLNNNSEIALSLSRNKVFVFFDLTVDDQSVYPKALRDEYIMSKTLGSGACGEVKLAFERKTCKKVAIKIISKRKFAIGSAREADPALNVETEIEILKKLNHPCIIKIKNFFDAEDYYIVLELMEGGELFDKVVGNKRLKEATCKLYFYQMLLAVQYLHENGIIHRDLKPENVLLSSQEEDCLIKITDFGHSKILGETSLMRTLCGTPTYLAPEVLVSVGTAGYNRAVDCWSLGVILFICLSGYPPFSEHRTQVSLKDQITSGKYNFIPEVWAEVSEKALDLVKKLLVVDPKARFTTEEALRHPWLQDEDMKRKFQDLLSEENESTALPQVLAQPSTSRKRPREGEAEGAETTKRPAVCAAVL

As to `N#Cc1cnc(Nc2cn(-c3ccc(CN4CC[C@@H](F)C4)cc3F)cn2)cn1` [Example 6, (R)-5-((1-(2-Fluoro-4-((3-fluoropyrrolidin-1-yl)methyl)phenyl)-1H-imidazol-4-yl)amino)pyrazine-2-carbonitrile], the IC50 on human Chk2 kinase is above 100 µM; on human Chk1 kinase it was 0.1 to 0.316 µM.

Consider `N#Cc1cnc(Nc2cn(-c3ccc(N4CCN(C5CC(F)(F)C5)CC4)cc3)cn2)cn1` [Example 181, 5-((1-(4-(4-(3,3-Difluorocyclobutyl)piperazin-1-yl)phenyl)-1H-imidazol-4-yl)amino)pyrazine-2-carbonitrile], for which the IC50 against human Chk2 kinase was above 100 µM; at human Chk1 kinase it was 0.0316 to 0.1 µM.

Consider `COc1cc(N2CCN(C)C[C@@H]2C)ccc1-n1cnc(Nc2cnc(C#N)cn2)c1` [Example 31, (S)-5-((1-(4-(2,4-Dimethylpiperazin-1-yl)-2-methoxyphenyl)-1H-imidazol-4-yl)amino)pyrazine-2-carbonitrile], for which the IC50 on human Chk2 kinase was in the range of 10 to 100 µM; against human Chk1 kinase, 0.01 to 0.0316 µM.

With `CN1CC2(CC(Oc3cccc(-n4cnc(Nc5cnc(C#N)cn5)c4)c3)C2)C1` [Example 175, 5-((1-(3-((2-Methyl-2-azaspiro[3.3]heptan-6-yl)oxy)phenyl)-1H-imidazol-4-yl)amino)pyrazine-2-carbonitrile], the IC50 is 10 to 100 µM at human Chk2 kinase and 0.0316 to 0.1 µM against human Chk1 kinase.

With `N#Cc1cnc(Nc2cn(-c3ccc(N4CCN(C5COC5)CC4)cc3)cn2)cn1` [Example 182, 5-((1-(4-(4-(Oxetan-3-yl)piperazin-1-yl)phenyl)-1H-imidazol-4-yl)amino)pyrazine-2-carbonitrile], the 50% inhibitory concentration (IC50) lay in the range of 10 to 100 µM against human Chk2 kinase and 0.0316 to 0.1 µM against human Chk1 kinase.

In the case of `CN1CCCN(c2ccc(-n3cnc(Nc4cnc(C#N)cn4)c3)cn2)CC1` [Example 20, 5-((1-(6-(4-methyl-1,4-Diazepan-1-yl)pyridin-3-yl)-1H-imidazol-4-yl)amino)pyrazine-2-carbonitrile], the half-inhibitory concentration (IC50) against human Chk2 kinase lay within 10 to 100 µM; on human Chk1 kinase, 0.1 to 0.316 µM.

As to `CN(C)C[C@@H]1CCCN1c1ccc(-n2cnc(Nc3cnc(C#N)cn3)c2)cc1` [Example 66, (S)-5-((1-(4-(2-((Dimethylamino)methyl)pyrrolidin-1-yl)phenyl)-1H-imidazol-4-yl)amino)pyrazine-2-carbonitrile], the IC50 against human Chk2 kinase fell in the range of 10 to 100 µM; on human Chk1 kinase, 0.0316 to 0.1 µM.

Regarding `COc1cc(N(C)CC2CCN(C)CC2)ccc1-n1cnc(Nc2cnc(C#N)cn2)c1` [Example 36, 5-((1-(2-Methoxy-4-(methyl((1-methylpiperidin-4-yl)methyl)amino)phenyl)-1H-imidazol-4-yl)amino)pyrazine-2-carbonitrile], the results for the concentration for half-maximal inhibition (IC50) against human Chk2 kinase and against human Chk1 kinase were 10 to 100 µM and 0.0316 to 0.1 µM, respectively.

`CN(C)C1CCCN(c2cccc(-n3cnc(Nc4cnc(C#N)cn4)c3)c2)C1` (single isomer, unassigned) [Example 111, 5-((1-(3-(3-(Dimethylamino)piperidin-1-yl)phenyl)-1H-imidazol-4-yl)amino)pyrazine-2-carbonitrile]: the figures for the 50% inhibitory concentration (IC50) on human Chk2 kinase and against human Chk1 kinase were 10 to 100 µM and 0.0316 to 0.1 µM, respectively.

As to `COc1cc(CN2CCOCC2)ccc1-n1cnc(Nc2cnc(C#N)cn2)c1` [Example 173, 5-((1-(2-Methoxy-4-(morpholinomethyl)phenyl)-1H-imidazol-4-yl)amino)pyrazine-2-carbonitrile], the IC50 against human Chk2 kinase is 10 to 100 µM; against human Chk1 kinase, 0.0316 to 0.1 µM.

With `CN1CCCN(c2cccc(-n3cnc(Nc4cnc(C#N)cn4)c3)c2)CC1` [Example 33, 5-((1-(3-(4-Methyl-1,4-diazepan-1-yl)phenyl)-1H-imidazol-4-yl)amino)pyrazine-2-carbonitrile], the IC50 against human Chk2 kinase was 10 to 100 µM; against human Chk1 kinase, 0.0316 to 0.1 µM.

As for `CN1C[C@H](OCc2ccc(-n3cnc(Nc4cnc(C#N)cn4)c3)cc2)[C@@H](F)C1` [Example 24, 5-((1-(4-((((3S,4S)-4-Fluoro-1-methylpyrrolidin-3-yl)oxy)methyl)phenyl)-1H-imidazol-4-yl)amino)pyrazine-2-carbonitrile], the figures for the half-inhibitory concentration (IC50) against human Chk2 kinase and against human Chk1 kinase were above 100 µM and 0.0316 to 0.1 µM, respectively.

Regarding `COc1cc(N2C[C@H]3C[C@@H]2CN3C)ccc1-n1cnc(Nc2cnc(C#N)cn2)c1` [Example 44, 5-((1-(2-Methoxy-4-((1R,4R)-5-methyl-2,5-diazabicyclo[2.2.1]heptan-2-yl)phenyl)-1H-imidazol-4-yl)amino)pyrazine-2-carbonitrile], the results for the 50% inhibitory concentration (IC50) at human Chk2 kinase and against human Chk1 kinase were 10 to 100 µM and 0.01 to 0.0316 µM, respectively.

Consider `C[C@H]1CCN1C1CCN(c2ccc(-n3cnc(Nc4cnc(C#N)cn4)c3)cc2)C1` (single isomer, unassigned) [Example 138], for which the half-maximal inhibitory concentration (IC50) at human Chk2 kinase is 1 to 10 µM; against human Chk1 kinase it was below 0.01 µM.

With `CC(C)C1CN(C2CCN(c3ccc(-n4cnc(Nc5cnc(C#N)cn5)c4)cc3)C2)C1` (single isomer, unassigned) [Example 134, 5-((1-(4-(3-(3-Isopropylazetidin-1-yl)pyrrolidin-1-yl)phenyl)-1H-imidazol-4-yl)amino)pyrazine-2-carbonitrile], the half-maximal inhibitory concentration (IC50) at human Chk2 kinase is above 100 µM; against human Chk1 kinase it was 0.01 to 0.0316 µM.

With `C[C@@H]1CCN1C1CCN(c2ccc(-n3cnc(Nc4cnc(C#N)cn4)c3)cc2)C1` (single isomer, unassigned) [Example 135], the figures for the 50% inhibitory concentration (IC50) against human Chk2 kinase and on human Chk1 kinase were 10 to 100 µM and 0.01 to 0.0316 µM, respectively.

Take `CCN[C@@H]1CCN(c2ccc(-n3cnc(Nc4cnc(C#N)cn4)c3)cc2)C1` [Example 162, (R)-5-((1-(4-(3-(Ethylamino)pyrrolidin-1-yl)phenyl)-1H-imidazol-4-yl)amino)pyrazine-2-carbonitrile]: the values for the IC50 at human Chk2 kinase and against human Chk1 kinase were 1 to 10 µM and below 0.01 µM, respectively.

With `CCN1CCC(Nc2ccc(-n3cnc(Nc4cnc(C#N)cn4)c3)c(OC)c2)CC1` [Example 41, 5-((1-(4-((1-Ethylpiperidin-4-yl)amino)-2-methoxyphenyl)-1H-imidazol-4-yl)amino)pyrazine-2-carbonitrile], the IC50 on human Chk2 kinase fell in the range of 10 to 100 µM; against human Chk1 kinase, 0.01 to 0.0316 µM.

In the case of `N#Cc1cnc(Nc2cn(-c3ccc(N4CCC(N5CCC5)C4)cc3)cn2)cn1` (single isomer, unassigned) [Example 114, 5-((1-(4-(3-(Azetidin-1-yl)pyrrolidin-1-yl)phenyl)-1H-imidazol-4-yl)amino)pyrazine-2-carbonitrile], the half-inhibitory concentration (IC50) at human Chk2 kinase was 1 to 10 µM; at human Chk1 kinase it was below 0.01 µM.

With `COc1cc(NC2CCN(C)CC2)ccc1-n1cnc(Nc2cnc(C#N)cn2)c1` [Example 13, 5-((1-(2-Methoxy-4-((1-methylpiperidin-4-yl)amino)phenyl)-1H-imidazol-4-yl)amino)pyrazine-2-carbonitrile], the half-maximal inhibitory concentration (IC50) on human Chk2 kinase fell in the range of 10 to 100 µM; at human Chk1 kinase it was 0.01 to 0.0316 µM.

Take `N#Cc1cnc(Nc2cn(-c3ccc(N4CC[C@@H](N5CCC5)C4)cn3)cn2)cn1` [Example 102, (R)-5-((1-(5-(3-(Azetidin-1-yl)pyrrolidin-1-yl)pyridin-2-yl)-1H-imidazol-4-yl)amino)pyrazine-2-carbonitrile]: the figures for the concentration for half-maximal inhibition (IC50) against human Chk2 kinase and against human Chk1 kinase were 1 to 10 µM and 0.01 to 0.0316 µM, respectively.

For the molecule `Cc1cc(-n2cnc(Nc3cnc(C#N)cn3)c2)ccc1N1CC[C@@H](N2CCC2)C1` [Example 104, (R)-5-((1-(4-(3-(Azetidin-1-yl)pyrrolidin-1-yl)-3-methylphenyl)-1H-imidazol-4-yl)amino)pyrazine-2-carbonitrile], the IC50 lay in the range of 10 to 100 µM against human Chk2 kinase and 0.01 to 0.0316 µM on human Chk1 kinase.

On to `COc1cc(N2CCN3CCC[C@H]3C2)ccc1-n1cnc(Nc2cnc(C#N)cn2)c1` [Example 30, (S)-5-((1-(4-(Hexahydropyrrolo[1,2-a]pyrazin-2(1H)-yl)-2-methoxyphenyl)-1H-imidazol-4-yl)amino)pyrazine-2-carbonitrile], for which the IC50 is 10 to 100 µM at human Chk2 kinase and below 0.01 µM against human Chk1 kinase.

For the molecule `CN1CCC(N(C)c2cccc(-n3cnc(Nc4cnc(C#N)cn4)c3)c2)CC1` [Example 43, 5-((1-(3-(Methyl(1-methylpiperidin-4-yl)amino)phenyl)-1H-imidazol-4-yl)amino)pyrazine-2-carbonitrile], the concentration for half-maximal inhibition (IC50) at human Chk2 kinase was 10 to 100 µM; on human Chk1 kinase it was 0.0316 to 0.1 µM.

`CN1CCN(c2ccc(-n3cnc(Nc4cnc(C#N)cn4)c3)nc2)CC1` [Example 18, 5-((1-(5-(4-Methylpiperazin-1-yl)pyridin-2-yl)-1H-imidazol-4-yl)amino)pyrazine-2-carbonitrile]: the IC50 against human Chk2 kinase lay within 1 to 10 µM; against human Chk1 kinase, 0.01 to 0.0316 µM.

Regarding `N#Cc1cnc(Nc2cn(-c3cccc(N4CCC(N)C(F)(F)C4)c3)cn2)cn1` (single isomer, unassigned) [Example 166, 5-((1-(3-(4-Amino-3,3-difluoropiperidin-1-yl)phenyl)-1H-imidazol-4-yl)amino)pyrazine-2-carbonitrile], the IC50 against human Chk2 kinase was above 100 µM; at human Chk1 kinase it was 0.0316 to 0.1 µM.

As to `CN(C)[C@H]1CN(c2ccc(-n3cnc(Nc4cnc(C#N)cn4)c3)cc2)C[C@H]1F` [Example 62, 5-((1-(4-((3S,4R)-3-(Dimethylamino)-4-fluoropyrrolidin-1-yl)phenyl)-1H-imidazol-4-yl)amino)pyrazine-2-carbonitrile], the IC50 is 1 to 10 µM against human Chk2 kinase and 0.01 to 0.0316 µM against human Chk1 kinase.

As to `CN1C[C@@H](F)[C@@H](OCc2ccc(-n3cnc(Nc4cnc(C#N)cn4)c3)cc2)C1` [Example 146, 5-((1-(4-((((3S,4R)-4-fluoro-1-Methylpyrrolidin-3-yl)oxy)methyl)phenyl)-1H-imidazol-4-yl)amino)pyrazine-2-carbonitrile], the IC50 on human Chk2 kinase was 10 to 100 µM; at human Chk1 kinase, 0.0316 to 0.1 µM.
